Data reported in patent publication US6630075B2, “Use of fluorinated ketones in fire extinguishing compositions” (3M Innovative Properties Company, priority 1999, dated 2003).

Experiment: Micro-Cup Burner Test (extinguishing concentration; Mass Ratio Calculation vs HALON 1211)
Details: for Mass Ratio to HALON™ 1211: calculated from extinguishing volume % and molecular weight relative to HALON 1211 (165 g/mole); for Ext. Conc. (vol %): volume % in air required to extinguish the flame within an average time of 30 seconds or less, propane fuel
From the text: The Micro-Cup Burner Test is a laboratory test which measures the extinguishing ability of an agent based on the quantity of agent required to extinguish a fire under the following test conditions. The Micro-Cup Burner Test utilizes a quartz concentric-tube laminar-diffusion flame burner (micro-cup burner, of similar design to the above-described cup apparatus) aligned vertically with all flows upward. A fuel, typically propane unless otherwise specified, flows at 10.0 sccm (standard cubic centimeters per minute) through a 5-mm I.D. inner quartz tube which is centered in a 15-mm I.D. quartz chimney. The chimney extends 4.5 cm above the inner tube. Air flows through the annular region between the inner tube and the chimney at 1000 sccm. Prior to the addition of extinguishing composition, a visually stable flame is supported on top of the inner tube, and the resulting combustion products flow out through the chimney. An extinguishing composition to be evaluated is introduced into the air stream upstream of the burner. Liquid compositions are introduced by a syringe pump (which is calibrated to within 1%) and are volatilized in a heated trap. Gaseous compositions are introduced via a mass-flow controller to the air stream upstream from the burner. For consistency, the air-gaseous composition mixture then flows through the heated trap prior to its introduction to the flame burner. All gas flows are maintained by electronic mass-flow controllers which are calibrated to within 2%. The fuel is ignited to produce a flame and is allowed to burn for 90 seconds. After 90 seconds, a specific flow rate of composition is introduced, and the time required for the flame to be extinguished is recorded. The reported extinguishing concentrations are the recorded volume % of extinguishing composition in air required to extinguish the flame within an average time of 30 seconds or less.
The above-mentioned cup burner test measures the performance of an extinguishing composition by determining the minimum volume percent of composition in air required to extinguish a test fire. However, it is often desirable to directly compare the fire performance of an experimental extinguishing composition (e.g., a fluorinated ketone) against the performance of a state-of-the-art extinguishing composition, such as HALON™ 1211 fire extinguishing agent (CF2ClBr, a bromochlorofluorocarbon). One way to make such a comparison is to derive the mass ratio of experimental composition to HALON™ 1211 fire extinguishing agent from the volume percentages of each composition required for extinguishing. The mass ratio can be calculated by dividing the experimental composition's extinguishing volume percent by the HALON™ 1211 agent's extinguishing volume percent and multiplying the resulting quotient (which, according to the ideal gas law, also represents the ratio of mole percents) times the weight average molecular weight of the experimental composition divided by the molecular weight of HALON™ 1211 agent (165 g/mole).
In Comparative Example C1, the extinguishing concentration (volume % in air) of HALON™ 1211 fire extinguishing agent was determined as using the Micro-Cup Burner Test.
In Examples 1-16, the extinguishing concentration of several perfluorinated ketones was also determined using the Micro-Cup Burner Test. The mass ratio as compared to HALON™ 1211 fire extinguishing agent was then calculated using the Mass Ratio Calculation.
In Comparative Examples C2-C11, various fluorinated extinguishing compositions known in the art (hydrofluorocarbons, perfluorocarbons, hydrochlorofluorocarbons, hydrofluoroethers, and iodofluorocarbons) were evaluated for their extinguishing concentration, and subsequently their mass ratios were calculated with respect to HALON™ 1211 agent. […]

Structure (SMILES) | Mass Ratio to HALON™ 1211 | Ext. Conc. (vol %)
O=C(C(F)(F)C(F)(F)OC(F)(F)F)C(F)(C(F)(F)F)C(F)(F)F [Example 14, 1,1,2,2,4,5,5,5-octafluoro-1-trifluoromethoxy-4-trifluoromethylpentan-3-one] | 2.76 | 4.3
CC(=O)C(F)(F)C(F)(F)C(F)(F)C(F)(F)F [Comparative Example C13, perfluorobutyl methyl ketone, reference compound] | 2.77 | 6.3
O=C(C(F)(F)C(F)(F)C(F)(F)F)C(F)(F)C(F)(F)C(F)(F)F [Example 12, 1,1,1,2,2,3,3,5,5,6,6,7,7,7tetradecafluoroheptan-4-one] | 2.64 | 4.3
FC(F)(F)C(F)(F)C(F)(F)C(F)(F)F [Comparative Example C7, perfluoro-n-butane, reference compound] | 2.12 | 5.3
O=C(C(F)(F)F)C(F)(F)C(F)(F)F [Example 13, 1,1,1,3,3,4,4,4-octafluorobutan-2-one] | 2.68 | 7.4
O=C(C(F)(F)C(F)F)C(F)(C(F)(F)F)C(F)(F)F [Example 6, 1,1,1,2,4,4,5,5-octafluoro-2-trifluoromethylpentan-3-one] | 2.20 | 4.4
O=C(C(F)(C(F)(F)F)C(F)(F)F)C(F)(C(F)(F)F)C(F)(F)F [Example 2, 1,1,1,2,4,5,5,5,6,6,6-octafluoro-2,4-bis(trifluoromethyl)pentan-3-one] | 2.03 | 3.3
FC(F)(F)C(F)(F)C(F)(F)C(F)(F)C(F)(F)C(F)(F)F [Comparative Example C8, perfluoro-n-hexane, reference compound] | 2.27 | 4.0
O=C(C(=O)C(F)(C(F)(F)F)C(F)(F)F)C(F)(C(F)(F)F)C(F)(F)F [Example 11, 1,1,1,2,5,6,6,6-octafluoro-2,5-bis(trifluoromethyl)hexan-3,4-dione] | 2.57 | 4.0
FC(F)(F)I [Comparative Example C2, iodotrifluoromethane, reference compound] | 1.14 | 3.5
O=C(C(F)(F)C(F)(F)C(F)(F)F)C(F)(C(F)(F)F)C(F)(F)F [Example 7, 1,1,1,2,4,4,5,5,6,6,6-undecafluoro-2-trifluoromethylhexan-3-one] | 2.21 | 3.6
FC(C(F)(F)F)C(F)(F)F [Comparative Example C5, 1,1,1,2,3,3,3-heptafluoropropane, reference compound] | 1.90 | 6.6
O=C(C(F)(F)Cl)C(F)(C(F)(F)F)C(F)(F)F [Example 8, 1-chloro-1,1,3,4,4,4-hexafluoro-3-trifluoromethyl-butan-2-one] | 2.23 | 4.7
O=C(C(F)(F)C(F)(F)F)C(F)(F)C(F)(F)C(F)(F)F [Example 9, 1,1,1,2,2,4,4,5,5,6,6,6-dodecafluorohexan-3-one] | 2.39 | 4.5
O=C(C(F)(F)F)C(F)(F)C(F)(F)C(F)(F)C(F)(F)C(F)(F)C(F)(F)F [Example 4, 1,1,1,3,3,4,4,5,5,6,6,7,7,8,8,8-hexadecafluorooctan-2-one] | 2.17 | 3.1
FC(F)(F)CC(F)(F)F [Comparative Example C3, 1,1,1,3,3,3-hexafluoropropane, reference compound] | 1.61 | 6.3
CC(=O)C(F)(C(F)(F)F)C(F)(F)F [Comparative Example C12, 3,4,4,4-tetrafluoro-3-trifluoromethylbutan-2-one, reference compound] | 2.42 | 6.8
COC(F)(C(F)(F)F)C(F)(C(F)(F)F)C(F)(F)F (stereo not shown) [Comparative Example C9, 1,1,1,2,3,4,4,4-octafluoro-3-trifluoromethyl-2-methoxybutane, reference compound] | 2.27 | 4.5
FC(F)(Cl)Br [Comparative Example C1, bromochlorodifluoromethane, reference compound] | 1.00 | 3.6
COC(F)(F)C(F)(F)C(F)(F)F [Comparative Example C11, 1,1,1,2,2,3,3-heptafluoro-3-methoxypropane, reference compound] | 2.52 | 7.5
FC(F)(F)C(F)(F)C(F)(F)F [Comparative Example C6, perfluoro-n-propane, reference compound] | 2.05 | 6.5
O=C(CC(=O)C(F)(F)F)C(F)(F)F [Example 10, 1,1,1,5,5,5-hexafluoropentan-2,4-dione] | 2.55 | 7.3
COC(F)(F)C(F)(F)C(F)(F)C(F)(F)F [Comparative Example C10, perfluorobutyl Methyl Ether, reference compound] | 2.52 | 6.1
O=C(C(F)(F)F)C(F)(C(F)(F)F)C(F)(F)F [Example 5, 1,1,1,3,4,4,4-heptafluoro-3-trifluoromethylbutan-2-one] | 2.19 | 4.9
O=C(C(F)(F)C(F)(F)C(F)(F)C(F)(F)F)C(F)(C(F)(F)F)C(F)(F)F [Example 16, 1,1,1,2,4,4,5,5,6,6,7,7,7-tridecafluoro-2-trifluoromethylheptan-3-one] | 3.00 | 4.3
O=C1C(F)(F)C(F)(F)C(F)(F)C(F)(F)C1(F)F [Example 15, decafluorocyclohexanone] | 2.80 | 6.0
